What was measured:
[1] = Intestinal calcium transport in rats on low calcium diet, chronic i.p. doses; format: in vivo, Sprague-Dawley rats; settings: for Ca transport S/M (mean ± SEM): male weanling rats, 0.02% Ca diet, 5 animals; for Activity in stimulating intestinal calcium transport relative to 1,25-(OH)2D3 (in words): summary of Table 1
Experimental: Intestinal calcium transport was determined as described by Perlman et al. (Biochemistry 29, 190–196, 1990).
(§1) Male, weanling Sprague-Dawley rats were placed on Diet 11 (0.47% Ca) diet+AEK for 11 days, followed by Diet 11 (0.02% Ca)+AEK for 31 days. Dosing (i.p.) began 7 days prior to sacrifice. Doses were given on a daily basis, 24 hours apart. The first 10 cm of the intestine was collected for gut transport studies and serum was collected for bone Ca mobilization analysis.

[2] = Serum calcium (bone calcium mobilization) in rats on low calcium diet, chronic i.p. doses; format: in vivo, Sprague-Dawley rats; design: Serum Ca (mean ± SEM): unit not given here; settings: for Serum Ca (mean ± SEM): male weanling rats, 0.02% Ca diet, 5 animals; for Bone calcium mobilization activity relative to 1,25-(OH)2D3 (in words): summary of Table 1
Experimental: The in vivo tests to determine serum calcium of rats on a low calcium diet provides an insight to […] or bone activity of (20S)-1α-hydroxy-2α-methyl-19-nor-vitamin D3 and (20S)-1α-hydroxy-2β-methyl-19-nor-vitamin D3.
as §1

[3] = molecular target: T1, vitamin D pig intestinal nuclear receptor (Sus scrofa, UniProt A3RGC1); test: Competitive binding of [3H]-1,25-(OH)2-D3 to the porcine intestinal vitamin D receptor; settings: FIG. 1; for Binding to the vitamin D receptor (in words): compared with 1,25-(OH)2D3
T1 construct: from tissue; host or cells: pig intestine (nuclear receptor preparation)
T1 sequence (A3RGC1 1-427): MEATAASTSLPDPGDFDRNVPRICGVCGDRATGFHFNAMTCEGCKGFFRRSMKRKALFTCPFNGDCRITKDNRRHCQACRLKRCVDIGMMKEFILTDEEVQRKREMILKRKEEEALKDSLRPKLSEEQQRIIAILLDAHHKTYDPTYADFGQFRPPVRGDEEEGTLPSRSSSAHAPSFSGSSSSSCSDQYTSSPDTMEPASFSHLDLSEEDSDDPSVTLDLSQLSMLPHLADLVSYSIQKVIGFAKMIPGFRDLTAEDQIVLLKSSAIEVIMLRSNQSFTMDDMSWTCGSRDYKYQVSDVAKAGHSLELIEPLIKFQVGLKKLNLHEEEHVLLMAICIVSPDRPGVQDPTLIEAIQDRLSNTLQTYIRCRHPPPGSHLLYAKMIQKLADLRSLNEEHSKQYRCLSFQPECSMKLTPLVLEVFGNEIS
Experimental: FIG. 1 is a graph illustrating the relative activity of (20S)-1α-hydroxy-2α-methyl-19-nor-vitamin D3, (20S)-1α-hydroxy-2β-methyl-19-nor-vitamin D3, and 1α,25-dihydroxyvitamin D3 to compete for binding of [^3H]-1,25-(OH)2-D3 to the vitamin D pig intestinal nuclear receptor; and
Competitive binding of the analogs to the porcine intestinal receptor was carried out by the method described by Dame et al. (Biochemistry 25, 4523–4534, 1986).

HL-60 cells = test: Differentiation of HL-60 promyelocytes into monocytes; format: cell-based; settings: FIG. 2
Experimental: FIG. 2 is a graph illustrating the percent HL-60 cell differentiation as a function of the concentration of (20S)-1α-hydroxy-2α-methyl-19-nor-vitamin D3, (20S)-1α-hydroxy-2β-methyl-19-nor-vitamin D3, and of 1α,25-dihydroxyvitamin D3.
The differentation of HL-60 promyelocytic into monoctyes was determined as described by Ostrem et al. (J. Boil. Chem. 262, 14164–14171, 1987).

[4] = 130 pmol/day i.p. daily for 7 days
[5] = 260 pmol/day i.p. daily for 7 days

## C=C1/C(=C\C=C2/CCC[C@]3(C)[C@@H]([C@H](C)CCCC(C)(C)O)CC[C@@H]23)C[C@@H](O)C[C@@H]1O [1α,25-(OH)2D3, 1α,25-dihydroxyvitamin D3, reference compound]
[1]; [4]
  Ca transport S/M (mean ± SEM): 5.3 ± 0.42
[1]; [5]
  Ca transport S/M (mean ± SEM): 6.5 ± 0.84
[2]; [4]
  Serum Ca (mean ± SEM): 5.0 ± 0.05
[2]; [5]
  Serum Ca (mean ± SEM): 5.5 ± 0.16

## CC(C)CCC[C@H](C)C1CCC2/C(=C/C=C3C[C@@H](O)C(C)[C@H](O)C3)CCC[C@@]21C (stereo partly drawn) [(20S)-1α-(OH)-2α-methyl-19-nor-D3, (20S)-1α-hydroxy-2α-methyl-19-nor-vitamin D3]
[3]
  Binding to the vitamin D receptor (in words): much less active than 1,25(OH)2D3
[3]; relative to 1,25-(OH)2D3
  Affinity for the vitamin D receptor, fold less than 1α,25-dihydroxyvitamin D3: 100 fold
HL-60 cells; listed as (20S)-1α-Hydroxy-2α-methyl-19-nor-vitamin D3
  Potency on HL-60 differentiation relative to 1,25-(OH)2D3 (in words): only slightly less active than 1,25-(OH)2D3
HL-60 cells; listed as (20S)-1α-hydroxy-2α-methyl-19-nor-vitamin D3
  Potency on HL-60 differentiation relative to 1,25-(OH)2D3 (in words): almost as potent as 1,25-(OH)2D3
[1]; [4]
  Ca transport S/M (mean ± SEM): 8.6 ± 0.90
[1]; [5]
  Ca transport S/M (mean ± SEM): 6.7 ± 0.68
[1]
  Activity in stimulating intestinal calcium transport relative to 1,25-(OH)2D3 (in words): high activity relative to that of 1,25-(OH)2D3
[2]; [4]
  Serum Ca (mean ± SEM): 10.0 ± 0.20
[2]; [5]
  Serum Ca (mean ± SEM): 12.7 ± 0.15
[2]
  Bone calcium mobilization activity relative to 1,25-(OH)2D3 (in words): higher bone calcium mobilization activity, as compared to 1,25-(OH)2D3

## CC(C)CCC[C@H](C)C1CCC2/C(=C/C=C3C[C@@H](O)C(C)[C@H](O)C3)CCC[C@@]21C (stereo partly drawn) [(20S)-1α-(OH)-2β-methyl-19-nor-D3, (20S)-1α-hydroxy-2β-methyl-19-nor-vitamin D3]
[3]
  Binding to the vitamin D receptor (in words): much less active than 1,25(OH)2D3
[3]; listed as 2β-methyl-(20S)-1α-hydroxyvitamin D3
  Binding to the vitamin D receptor (in words): does not bind
HL-60 cells
  Potency on HL-60 differentiation relative to 1,25-(OH)2D3 (in words): only slightly less active than 1,25-(OH)2D3
HL-60 cells; relative to 1,25(OH)2D3
  HL-60 differentiation activity, times less active than 1,25(OH)2D3: 100 times
[1]; [4]
  Ca transport S/M (mean ± SEM): 6.8 ± 0.73
[1]; [5]
  Ca transport S/M (mean ± SEM): 5.7 ± 0.45
[1]
  Activity in stimulating intestinal calcium transport relative to 1,25-(OH)2D3 (in words): about the same as 1,25-(OH)2D3
[2]; [4]
  Serum Ca (mean ± SEM): 4.8 ± 0.04
[2]; [5]
  Serum Ca (mean ± SEM): 5.1 ± 0.04
[2]
  Bone calcium mobilization activity relative to 1,25-(OH)2D3 (in words): about the same as 1,25-(OH)2D3

— US7064115B2, “(20S)-1α-hydroxy-2α-methyl and 2β-methyl-19-nor-vitamin D3 and their uses” (Wisconsin Alumni Research Foundation, priority 2002, dated 2006)
